Data from patent publication US8273726B2, “Compositions for treating and/or preventing diseases characterized by the presence of metal ions” (Brandeis University, priority 2002, dated 2012).
Entries after “also recorded” stand apart in the source; their conditions may differ. Structures can show the parent of a compound that is named as a salt. Where two headings read alike, the source gives them in different places.

Tests used:
[1] = tested on: peptide 1 (A-beta1-42 peptide); assay: CD titration of iron-complexed peptide 1 with silanes (Example 9); assay type: biochemical, human
NF-M17 = assay: CD titration of NF-M17 peptide/aluminum with silicon compounds (Example 1); assay type: biochemical, human
A-beta antigen = assay: Slot blot of A-beta antigen extracted from Alzheimer's brain tissue sections (Example 8); set-up: species or system human
in vitro = settings: human, Caco-2
A-beta1-42 peptide [2] = target: T1, A-beta1-42 peptide (Homo sapiens, UniProt P05067); assay type: biochemical
A-beta1-42 peptide [3] = assay type: biochemical, human
Caco-2 cells [4] = tested on: Caco-2 cells
A-beta1-42 peptide [5] = target: T1, A-beta1-42 peptide; assay type: biochemical; remark: listed apart in the source
Caco-2 cells [6] = settings: for Permeation Coefficient (cm/sec) Mean ± SD, where applicable: human

T1 sequence (P05067 672-713): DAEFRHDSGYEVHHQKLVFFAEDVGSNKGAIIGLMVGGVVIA

Compound: C[Si](O)(O)CCCC#N [3f, (dihydroxy)methyl(3-cyanopropyl)silane]
- return of the helical CD spectrum on titration of iron-complexed peptide 1 [1]: dosage effect is evident, but non-linear
- titration point showing the greatest degree of recovery [1]: 0.25 eq.

Compound: NCCC[Si](O)(O)O [APST, 3-aminopropylsilantriol]
- Restore original spectra? (NF-M17): Yes
- chelation of aluminum compared to sodium orthosilicate (NF-M17): improved chelation
- restoration of the CD spectrum of NF-M17/aluminum to its original shape (NF-M17): able to restore

Compound: CC[Si](O)(CC)Cc1ccccc1 [BDS, benzyldiethylsilanol]
- Restore original spectra? (NF-M17): No
- restoration of the CD spectrum of NF-M17/aluminum to its original shape (NF-M17): did not restore

Compound: CCC(C#N)C[Si](C)(Cl)Cl (centres unmarked) [CBMS, 2-cyanobutylmethyldichlorosilane]
- Total Extracted (A-beta antigen): 5.2 fmol
- Papp A→B (in vitro): 6.5 ×10⁻⁶ cm/s

Compound: C[Si](Cl)(Cl)CCC#N [CEMS, 2-cyanoethylmethyldichlorosilane]
- Papp A→B (in vitro): 4.6 ×10⁻⁶ cm/s
- protection of the helical structure of A-beta1-42 against amyloid formation by aluminum (III) (A-beta1-42 peptide [2]): protection of the helical structure

Compound: CC(C#N)C[Si](C)(Cl)Cl (centres unmarked) [CPMS, 2-cyanopropylmethyldichlorosilane]
- Total Extracted (A-beta antigen): 6.0 fmol
- extraction of A-beta antigen from Alzheimer's tissue (A-beta antigen): no detectable antigen
- Papp A→B (in vitro): 6.1 ×10⁻⁶ cm/s

Compound: N#CCCC[Si](Cl)(Cl)Cl [CPTCS, 3-cyanopropyltrichlorosilane]
- Restore original spectra? (NF-M17): Yes
- equivalents at which the CD spectrum of NF-M17/aluminum was restored to its original shape (NF-M17): around 32 equivalents
- reversal of the effect of aluminum on the CD spectrum of A-beta1-42 (A-beta1-42 peptide [3]): Moderate reversal; also recorded: almost full reversal

Compound: CC[Si](Cl)(Cl)CC [DCDES, dichlorodiethylsilane]
- Restore original spectra? (NF-M17): Yes
- equivalents at which the CD spectrum of NF-M17/aluminum was restored to its original shape (NF-M17): around 32 equivalents
- restoration of the original CD spectrum of A-beta1-42 peptide after exposure to aluminum (A-beta1-42 peptide [3]): at least partially restored

Compound: CC(C)[Si](Cl)(Cl)C(C)C [DCDIPS, dichlorodiisopropylsilane]
- Restore original spectra? (NF-M17): Yes
- equivalents at which the CD spectrum of NF-M17/aluminum was restored to its original shape (NF-M17): around 32 equivalents
- restoration of the original CD spectrum of A-beta1-42 peptide after exposure to aluminum (A-beta1-42 peptide [3]): at least partially restored

Compound: O[Si](O)(c1ccccc1)c1ccccc1 [DPSD, diphenylsilandiol]
- Restore original spectra? (NF-M17; CD spectrum of NF-M17 with 8 equivalents of aluminum, in TFE): (DMSO interfered with spectra)
- restoration of the CD spectrum of NF-M17/aluminum to its original shape (NF-M17; NF-M17 with 8 equivalents of aluminum, in TFE): did not restore

Compound: Cl [HCl, hydrochloric acid, reference compound]
- reversing the helix-coil transition by acid [1]: effective for reversing the helix-coil transition
- extraction of A-beta antigen from Alzheimer's tissue (A-beta antigen): no detectable antigen

Compound: CCCCCC[Si](C)(Cl)Cl [HMDS, hexylmethyldichlorosilane]
- Restore original spectra? (NF-M17): Yes
- equivalents at which the CD spectrum of NF-M17/aluminum was restored to its original shape (NF-M17): around 32 equivalents
- restoration of the original CD spectrum of A-beta1-42 peptide after exposure to aluminum (A-beta1-42 peptide [3]): at least partially restored

Compound: C[Si](Cl)(Cl)c1ccccc1 [MPDS, methylphenyldichlorosilane]
- Restore original spectra? (NF-M17): Yes
- equivalents at which the CD spectrum of NF-M17/aluminum was restored to its original shape (NF-M17): around 32 equivalents

Compound: CCCCCCCC[Si](Cl)(Cl)Cl [OTCS, n-octyltrichlorosilane]
- Restore original spectra? (NF-M17): (gelation of OTCS)
- restoration of the CD spectrum of NF-M17/aluminum to its original shape (NF-M17): did not restore

Compound: C1CC[Si]2(CCCCO2)OC1 [SDSU, 1,7-dioxa-6-sila-spiro[5.5]undecane]
- restoration of the original CD spectrum of A-beta1-42 peptide after exposure to aluminum (A-beta1-42 peptide [3]): at least partially restored
- transport across Caco-2 cells (Caco-2 cells [4]): significant amount of transport

Compound: CC(=O)O[Si](OC(C)=O)(OC(C)=O)OC(C)=O [TAS, tetraacetooxysilane]
- restoration of the original CD spectrum of A-beta1-42 peptide after exposure to aluminum (A-beta1-42 peptide [3]): at least partially restored

Compound: CC(C)(C)[Si](C)(C)O [TBDMS, tert-butyldimethylsilanol]
- Restore original spectra? (NF-M17): No
- restoration of the CD spectrum of NF-M17/aluminum to its original shape (NF-M17): did not restore

Compound: CC[Si](O)(CC)CC [TES, triethylsilanol]
- Restore original spectra? (NF-M17): No
- restoration of the CD spectrum of NF-M17/aluminum to its original shape (NF-M17): did not restore
- restoration of the original CD spectrum of A-beta1-42 peptide after exposure to aluminum (A-beta1-42 peptide [3]): at least partially restored

Compound: [Zn] [Zinc]
- effect of the metal on the A-beta1-42 CD spectrum (A-beta1-42 peptide [5]): minor or no effects

Compound: C[Si](Cl)(Cl)CC[Si](C)(Cl)Cl [compound 1042, 1,2-(methyldichlorosilyl)ethane]
- Total Extracted (A-beta antigen; Braak V tissue, 1 h at room temperature, corrected for volume dilution): 14.0 fmol
- share of total antigen released to the extract (A-beta antigen; based on the intensity from urea-solubilized tissues): approximately 12%
- crossing of the epithelial barrier in the Caco-2 model (Caco-2 cells [6]; Caco-2): crossed the epithelial barrier efficiently
- permeation of Caco-2 cells relative to mannitol (Caco-2 cells [6]; Caco-2): at least four times greater
- Permeation Coefficient (cm/sec) Mean ± SD, where applicable (Caco-2 cells [6]; Caco-2, 60 min, 20 mM): 2.5 × 10^−5 (n = 2) cm/sec

Compound: [Cu] [copper]
- effect of the metal on the A-beta1-42 CD spectrum (A-beta1-42 peptide [5]): strong effects

Compound: [Fe+2] [iron (II)]
- effect of the metal on the A-beta1-42 CD spectrum (A-beta1-42 peptide [5]): minor or no effects

Compound: [Fe+3] [iron (III)]
- effect of the metal on the A-beta1-42 CD spectrum (A-beta1-42 peptide [5]): strong effects

Compound: O.O.O.O.O.O.O.O.O.O=[Si]([O-])[O-].[Na+].[Na+] [sodium metasilicate, sodium metasilicate nonahydrate, reference compound]
- equivalents at which the CD curve began to return / showed some return to its original shape (NF-M17; NF-M17 with 8 equivalents of aluminum): about 32 equivalents

Compound: CN(C)[Si](N(C)C)(N(C)C)N(C)C [tetrakis, tetrakis(dimethylamino)silane]
- restoration of the original CD spectrum of A-beta1-42 peptide after exposure to aluminum (A-beta1-42 peptide [3]): at least partially restored

Compound: (dichloro)methylsilylbutyronitrile [DCMSBN]
- Restore original spectra? (NF-M17): Yes
- equivalents at which the CD spectrum of NF-M17/aluminum was restored to its original shape (NF-M17): around 32 equivalents
- restoration of the original CD spectrum of A-beta1-42 peptide after exposure to aluminum (A-beta1-42 peptide [3]): at least partially restored
- relative transport across Caco-2 cells (FIG. 29B vs FIG. 29A) (Caco-2 cells [4]): more transport
- transport across Caco-2 cells (Caco-2 cells [4]): significant amount of transport

Compound: Aluminum
- effect of the metal on the A-beta1-42 CD spectrum (A-beta1-42 peptide [5]): decreases with higher concentrations; also recorded: strong effects

Compound: dichlorosilacyclobutane [DCSCB]
- restoration of the original CD spectrum of A-beta1-42 peptide after exposure to aluminum (A-beta1-42 peptide [3]): at least partially restored
- transport across Caco-2 cells (Caco-2 cells [4]): significant amount of transport

Compound: triethoxysilylbutyronitrile [TESB]
- restoration of the original CD spectrum of A-beta1-42 peptide after exposure to aluminum (A-beta1-42 peptide [3]): at least partially restored; also recorded: reverses aluminum-induced denaturation
- relative transport across Caco-2 cells (FIG. 29B vs FIG. 29A) (Caco-2 cells [4]): more transport
- transport across Caco-2 cells (Caco-2 cells [4]): significant amount of transport
- permeation of Caco-2 cells relative to mannitol (Caco-2 cells [6]; Caco-2): at least four times greater
- Permeation Coefficient (cm/sec) Mean ± SD, where applicable (Caco-2 cells [6]; Caco-2): 3.0 × 10^−5 (n = 2) cm/sec

Compound: triethoxysilylpropionitrile [TESP]
- restoration of the original CD spectrum of A-beta1-42 peptide after exposure to aluminum (A-beta1-42 peptide [3]): at least partially restored

Compound: trihydroxysilylmethyl phosphonate [TSMP]
- permeation of Caco-2 cells relative to mannitol (Caco-2 cells [6]; Caco-2): slower permeation than mannitol
